“And” between values parts separate entries of the source, which are not always exact repeats. Equal values may be shown once.

This passage reports T/C results from PubChem BioAssay AID180 (DTP/NCI, 2004).

This assay deals with BDF1 mice, Adenocarcinoma 755 s.c., tumor weight T/C. As to the kind of experiment: NCI In Vivo Anticancer Drug Screen. Data for tumor model Adenocarcinoma 755 (subcutaneous) in B6D2F1 (BDF1) mice. As to conditions: endpoint: mean tumor weight, higher = larger tumour. An outline of the steps: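 Values express treated (T) relative to vehicle-dosed control (C) animals, based on survival or tumour size measured after compound treatment of mice bearing a transplanted tumour.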

The mark [1] stands for this setting: dose: 500.0 mg/kg/injection, schedule: Q01DX011 (ip), vehicle: carboxymethylcellulose (CMC).
Setting [2] is: dose: 6.0 mg/kg/injection, schedule: Q01DX011 (ip), vehicle: carboxymethylcellulose (CMC).
Where [3] appears, read: dose: 12.0 mg/kg/injection, schedule: Q01DX011 (ip), vehicle: carboxymethylcellulose (CMC).
[4] abbreviates: dose: 25.0 mg/kg/injection, schedule: Q01DX011 (ip), vehicle: saline.
Setting [5] is: dose: 50.0 mg/kg/injection, schedule: Q01DX011 (ip), vehicle: saline.
Setting [6] is: dose: 100.0 mg/kg/injection, schedule: Q01DX011 (ip), vehicle: saline.

Consider `S=c1nc[nH]c2c1ncn2C1CC1`, for which the T/C (dose: 31.0 mg/kg/injection, schedule: Q01DX011 (ip), vehicle: carboxymethylcellulose (CMC)) was 86 % of control; the T/C (dose: 62.0 mg/kg/injection, schedule: Q01DX011 (ip), vehicle: carboxymethylcellulose (CMC)) is 89 % of control; the T/C (dose: 125.0 mg/kg/injection, schedule: Q01DX011 (ip), vehicle: carboxymethylcellulose (CMC)) is 86 % of control; the T/C (dose: 250.0 mg/kg/injection, schedule: Q01DX011 (ip), vehicle: carboxymethylcellulose (CMC)) was 33 % of control; the T/C under setting [1] is 59 % of control.
On to `O=[N+]([O-])c1ccc(C=Nc2ccc3c(c2)C(Br)c2ccccc2-3)cc1` (stereo not given), for which the T/C is, setting by setting: (dose: 28.0 mg/kg/injection, schedule: Q01DX011 (ip), vehicle: saline) 113 % of control; (dose: 55.0 mg/kg/injection, schedule: Q01DX011 (ip), vehicle: saline) 96 % of control; (dose: 110.0 mg/kg/injection, schedule: Q01DX011 (ip), vehicle: saline) 73 % of control; (dose: 220.0 mg/kg/injection, schedule: Q01DX011 (ip), vehicle: saline) 40 % of control and 44 % of control; (dose: 440.0 mg/kg/injection, schedule: Q01DX011 (ip), vehicle: saline) 39 % of control.
In the case of `c1ccc(N2CCSCC2)cc1`, the T/C (dose: 40.5 mg/kg/injection, schedule: Q01DX011 (ip), vehicle: methylcellulose (MC)) is 16 % of control and 28 % of control.
As to `CN(C)c1ncnc2c1ncn2C1CCCCO1` (stereo not given), the T/C was 70 % of control (dose: 11.0 mg/kg/injection, schedule: Q01DX011 (ip), vehicle: methylcellulose (MC)); 47 % of control (dose: 22.5 mg/kg/injection, schedule: Q01DX011 (ip), vehicle: methylcellulose (MC)); 47 % of control (dose: 45.0 mg/kg/injection, schedule: Q01DX011 (ip), vehicle: methylcellulose (MC)); 20 % of control (dose: 90.0 mg/kg/injection, schedule: Q01DX011 (ip), vehicle: methylcellulose (MC)).
As for `CC(=O)OCC(=O)C1(O)C(C)CC2C3C=C(C)C4=Cc5c(cnn5-c5ccccc5)CC4(C)C3C(O)CC21C` (stereo not given), the T/C is 74 % of control (dose: 0.01 mg/kg/injection, schedule: Q01DX011 (sc), vehicle: steriod suspending solution); 59 % of control (dose: 0.02 mg/kg/injection, schedule: Q01DX011 (sc), vehicle: steriod suspending solution); 46 % of control and 48 % of control (dose: 0.05 mg/kg/injection, schedule: Q01DX011 (sc), vehicle: steriod suspending solution); 19 % of control and 23 % of control (dose: 0.1 mg/kg/injection, schedule: Q01DX011 (sc), vehicle: steriod suspending solution); 9 % of control and 13 % of control (dose: 0.2 mg/kg/injection, schedule: Q01DX011 (sc), vehicle: steriod suspending solution); 14 % of control (dose: 1.0 mg/kg/injection, schedule: Q01DX011 (sc), vehicle: steriod suspending solution). The T/C was 54 % of control (dose: 5.0 micrograms/kg/injection, schedule: Q01DX011 (sc), vehicle: steriod suspending solution); 106 % of control (dose: 10.0 micrograms/kg/injection, schedule: Q01DX011 (sc), vehicle: steriod suspending solution); 46 % of control (dose: 25.0 micrograms/kg/injection, schedule: Q01DX011 (sc), vehicle: steriod suspending solution).
Turning to `CSc1nc(C)c(Br)c(Sc2nc(N)nc3nc[nH]c23)n1`, the T/C (dose: 0.3 mg/kg/injection, schedule: Q01DX011 (ip), vehicle: carboxymethylcellulose (CMC)) is 106 % of control; the T/C (dose: 0.7 mg/kg/injection, schedule: Q01DX011 (ip), vehicle: carboxymethylcellulose (CMC)) was 117 % of control; the T/C under setting [2] was 42 % of control; the T/C under setting [3] was 28 % of control; the T/C (dose: 24.0 mg/kg/injection, schedule: Q01DX011 (ip), vehicle: carboxymethylcellulose (CMC)) is 6 % of control.
Take `CCCCCCn1cnc2c(=S)nc[nH]c21`: the T/C (dose: 63.0 mg/kg/injection, schedule: Q01DX011 (ip), vehicle: carboxymethylcellulose (CMC)) is 50 % of control; the T/C under setting [1] is 5 % of control and 13 % of control.
With `CCCCCSc1nc(N)nc2nc[nH]c12`, the T/C (dose: 0.04 mg/kg/injection, schedule: Q01DX011 (ip), vehicle: alkali diluted with saline) is 114 % of control; the T/C (dose: 0.08 mg/kg/injection, schedule: Q01DX011 (ip), vehicle: alkali diluted with saline) was 119 % of control; the T/C (dose: 0.16 mg/kg/injection, schedule: Q01DX011 (ip), vehicle: alkali diluted with saline) was 95 % of control; the T/C (dose: 0.32 mg/kg/injection, schedule: Q01DX011 (ip), vehicle: alkali diluted with saline) is 80 % of control; the T/C (dose: 0.63 mg/kg/injection, schedule: Q01DX011 (ip), vehicle: alkali diluted with saline) is 112 % of control; the T/C (dose: 1.25 mg/kg/injection, schedule: Q01DX011 (ip), vehicle: alkali diluted with saline) is 97 % of control. The T/C is, setting by setting: (dose: 1.5 mg/kg/injection, schedule: Q01DX011 (ip), vehicle: saline) 79 % of control; (dose: 2.5 mg/kg/injection, schedule: Q01DX011 (ip), vehicle: alkali diluted with saline) 85 % of control; (dose: 3.1 mg/kg/injection, schedule: Q01DX011 (ip), vehicle: saline) 100 % of control; (dose: 5.0 mg/kg/injection, schedule: Q01DX011 (ip), vehicle: alkali diluted with saline) 106 % of control; (dose: 6.25 mg/kg/injection, schedule: Q01DX011 (ip), vehicle: saline) 83 % of control; (dose: 10.0 mg/kg/injection, schedule: Q01DX011 (ip), vehicle: alkali diluted with saline) 82 % of control. The T/C runs as follows: (dose: 12.5 mg/kg/injection, schedule: Q01DX011 (ip), vehicle: saline) 43 % of control; under setting [4], 47 % of control; under setting [5], 7 % of control; under setting [6], 3 % of control.
As for `O=C(O)Cc1ccc(C2CCCCC2)cc1`, the T/C (dose: 37.5 mg/kg/injection, schedule: Q01DX011 (ip), vehicle: carboxymethylcellulose (CMC)) is 164 % of control; the T/C (dose: 75.0 mg/kg/injection, schedule: Q01DX011 (ip), vehicle: carboxymethylcellulose (CMC)) was 81 % of control; the T/C (dose: 150.0 mg/kg/injection, schedule: Q01DX011 (ip), vehicle: carboxymethylcellulose (CMC)) was 120 % of control; the T/C (dose: 300.0 mg/kg/injection, schedule: Q01DX011 (ip), vehicle: carboxymethylcellulose (CMC)) was 53 % of control.
As for `CCC(=O)N(CC)CC`, for the setting “dose: 250.0 mg/kg/injection, schedule: Q01DX011 (ip), vehicle: other”, the T/C was 100 % of control.
As to `C[C@]12CC[C@H](O)CC1=CC[C@@H]1[C@@H]2[C@@H](O)C[C@@]2(C)[C@H]1CC[C@]2(C)O`, the T/C is, setting by setting: (dose: 100.0 mg/kg/injection, schedule: Q01DX011 (sc), vehicle: steriod suspending solution) 96 % of control; (dose: 300.0 mg/kg/injection, schedule: Q01DX011 (sc), vehicle: steriod suspending solution) 93 % of control.
For `Nc1nc(=S)c2ncn(C3OC(COC(=O)c4ccc(Cl)cc4)C(OC(=O)c4ccc(Cl)cc4)C3OC(=O)c3ccc(Cl)cc3)c2[nH]1` (stereo not given), the T/C reads like this: (dose: 0.88 mg/kg/injection, schedule: Q01DX011 (ip), vehicle: carboxymethylcellulose (CMC)) 94 % of control; (dose: 1.75 mg/kg/injection, schedule: Q01DX011 (ip), vehicle: carboxymethylcellulose (CMC)) 65 % of control; (dose: 3.5 mg/kg/injection, schedule: Q01DX011 (ip), vehicle: carboxymethylcellulose (CMC)) 102 % of control; under setting [2], 72 % of control; (dose: 10.0 mg/kg/injection, schedule: Q01DX011 (ip), vehicle: carboxymethylcellulose (CMC)) 6 % of control; under setting [3], 23 % of control. In addition, the T/C is, setting by setting: (dose: 16.0 mg/kg/injection, schedule: Q01DX011 (ip), vehicle: carboxymethylcellulose (CMC)) 1 % of control; (dose: 50.0 mg/kg/injection, schedule: Q01DX011 (ip), vehicle: carboxymethylcellulose (CMC)) 2 % of control and 3 % of control.
Consider `O=c1[nH]c(=O)c2[nH]c(N=Nc3ccc(N(CCCl)CCCl)cc3)nc2[nH]1`, for which the T/C is 74 % of control under setting [4]; 56 % of control under setting [5]; 6 % of control and 19 % of control under setting [6].
